Results on three compounds are retold here after ChEMBL document CHEMBL1201862, “PubChem BioAssay data set” (2004).

Experiment [1] can be described thus: general cell-killing toxicity readout – plate reader, dry powder samples, cytotoxicity control for PAX8 inhibitor project, dose response (AID 743021). Format: functional, cell-based.
Experiment [2] deals with T1, Exodeoxyribonuclease V (Escherichia coli (strain K12), UniProt P04993+P07648+P08394).
T1 sequence (P04993 whole entry): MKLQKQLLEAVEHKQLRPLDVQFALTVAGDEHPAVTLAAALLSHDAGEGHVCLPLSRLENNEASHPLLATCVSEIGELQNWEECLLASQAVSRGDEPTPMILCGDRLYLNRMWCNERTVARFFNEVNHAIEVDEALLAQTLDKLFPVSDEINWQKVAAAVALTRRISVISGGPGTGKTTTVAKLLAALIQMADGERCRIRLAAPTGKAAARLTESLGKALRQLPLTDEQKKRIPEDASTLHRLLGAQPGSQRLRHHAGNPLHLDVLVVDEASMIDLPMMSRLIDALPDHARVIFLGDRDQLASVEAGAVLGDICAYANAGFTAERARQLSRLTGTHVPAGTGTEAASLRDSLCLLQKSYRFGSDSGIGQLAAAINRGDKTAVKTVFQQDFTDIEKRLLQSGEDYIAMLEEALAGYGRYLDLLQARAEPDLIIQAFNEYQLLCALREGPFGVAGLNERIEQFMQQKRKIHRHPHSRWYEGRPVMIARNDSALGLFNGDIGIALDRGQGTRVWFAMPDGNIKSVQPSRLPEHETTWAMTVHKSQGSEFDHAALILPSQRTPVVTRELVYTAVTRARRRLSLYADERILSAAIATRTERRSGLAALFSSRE
T1 sequence (P07648 whole entry): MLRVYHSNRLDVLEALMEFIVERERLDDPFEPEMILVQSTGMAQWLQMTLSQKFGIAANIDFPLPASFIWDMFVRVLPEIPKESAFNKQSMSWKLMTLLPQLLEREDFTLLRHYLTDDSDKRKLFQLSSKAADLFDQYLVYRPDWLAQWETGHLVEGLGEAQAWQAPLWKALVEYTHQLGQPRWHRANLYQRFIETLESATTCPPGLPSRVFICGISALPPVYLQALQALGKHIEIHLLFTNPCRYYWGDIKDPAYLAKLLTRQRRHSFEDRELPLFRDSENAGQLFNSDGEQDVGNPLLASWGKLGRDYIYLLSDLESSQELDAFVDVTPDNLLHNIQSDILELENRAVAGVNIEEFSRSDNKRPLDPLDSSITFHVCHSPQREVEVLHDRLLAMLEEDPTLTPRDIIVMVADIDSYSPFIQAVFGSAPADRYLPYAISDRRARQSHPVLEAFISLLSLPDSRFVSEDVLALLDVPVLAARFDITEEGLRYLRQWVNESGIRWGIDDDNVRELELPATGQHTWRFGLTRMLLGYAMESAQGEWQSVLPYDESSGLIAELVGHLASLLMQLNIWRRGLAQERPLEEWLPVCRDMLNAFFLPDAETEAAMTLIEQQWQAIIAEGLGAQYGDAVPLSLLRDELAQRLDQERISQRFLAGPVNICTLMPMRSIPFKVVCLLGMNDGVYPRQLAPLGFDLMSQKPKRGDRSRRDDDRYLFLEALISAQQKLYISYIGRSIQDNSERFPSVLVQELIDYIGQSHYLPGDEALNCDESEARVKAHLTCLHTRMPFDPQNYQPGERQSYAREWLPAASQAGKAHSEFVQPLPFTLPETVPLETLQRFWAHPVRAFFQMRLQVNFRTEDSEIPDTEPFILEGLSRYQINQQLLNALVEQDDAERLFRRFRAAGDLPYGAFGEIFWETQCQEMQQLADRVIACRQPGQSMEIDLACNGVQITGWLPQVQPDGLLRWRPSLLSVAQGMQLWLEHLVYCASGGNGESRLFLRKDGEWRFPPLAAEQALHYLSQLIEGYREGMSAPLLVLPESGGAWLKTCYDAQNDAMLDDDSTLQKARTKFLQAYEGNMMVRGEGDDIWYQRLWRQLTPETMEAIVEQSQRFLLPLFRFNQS
T1 sequence (P08394 whole entry): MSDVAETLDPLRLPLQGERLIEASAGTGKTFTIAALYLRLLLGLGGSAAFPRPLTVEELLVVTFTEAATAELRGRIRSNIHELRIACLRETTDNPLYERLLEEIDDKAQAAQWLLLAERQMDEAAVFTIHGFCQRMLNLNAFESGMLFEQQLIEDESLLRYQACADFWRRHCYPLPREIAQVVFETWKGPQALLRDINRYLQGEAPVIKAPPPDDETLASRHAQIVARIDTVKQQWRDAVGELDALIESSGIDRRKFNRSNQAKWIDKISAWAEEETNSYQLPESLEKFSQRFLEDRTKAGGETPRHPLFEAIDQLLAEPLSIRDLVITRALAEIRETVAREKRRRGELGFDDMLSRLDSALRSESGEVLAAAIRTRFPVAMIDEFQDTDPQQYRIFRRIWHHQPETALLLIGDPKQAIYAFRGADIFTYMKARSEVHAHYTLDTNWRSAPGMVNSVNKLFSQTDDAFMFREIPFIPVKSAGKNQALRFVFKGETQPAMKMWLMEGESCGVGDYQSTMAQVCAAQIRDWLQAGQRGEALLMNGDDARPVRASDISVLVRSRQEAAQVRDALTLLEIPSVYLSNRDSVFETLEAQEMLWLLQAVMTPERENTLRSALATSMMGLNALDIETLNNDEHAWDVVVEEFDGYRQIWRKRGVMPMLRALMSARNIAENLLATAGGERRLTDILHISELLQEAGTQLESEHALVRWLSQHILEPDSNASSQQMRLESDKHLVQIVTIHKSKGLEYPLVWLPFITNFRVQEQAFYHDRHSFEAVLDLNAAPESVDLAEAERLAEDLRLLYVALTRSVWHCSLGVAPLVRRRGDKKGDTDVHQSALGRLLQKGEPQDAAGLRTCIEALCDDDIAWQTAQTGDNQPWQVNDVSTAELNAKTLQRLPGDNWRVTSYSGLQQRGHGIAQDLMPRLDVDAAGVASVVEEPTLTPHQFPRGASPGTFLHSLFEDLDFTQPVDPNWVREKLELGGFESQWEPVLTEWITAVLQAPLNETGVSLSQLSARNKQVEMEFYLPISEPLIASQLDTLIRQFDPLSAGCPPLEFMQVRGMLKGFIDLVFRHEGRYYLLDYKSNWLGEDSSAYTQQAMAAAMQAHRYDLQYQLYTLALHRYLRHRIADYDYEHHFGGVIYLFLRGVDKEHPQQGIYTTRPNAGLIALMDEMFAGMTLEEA
In words: RecBCD inhibition via phage-restricted bacterial growth – absorbance, V66 E. coli, mutant T4 phage, counter-screen for AddAB inhibitor project, dose response (AID 492957). It is filed as functional, cell-based, Escherichia coli str. K-12 substr. MG1655.

Experiment [3] addresses Mitogen-activated protein kinase kinase kinase kinase 4 (Homo sapiens, UniProt O95819). Format: functional.
Experiment [4] has as its target Dual specificity tyrosine-phosphorylation-regulated kinase 1A (Homo sapiens, UniProt Q13627). It is filed as functional.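 Note: measured against DYRK1A as one member of a broad kinome profiling panel.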

Active and inactive are the calls of the source. The rule behind the calls is not given here.

Mitogen-activated protein kinase kinase kinase kinase 4, sequence (O95819 whole entry): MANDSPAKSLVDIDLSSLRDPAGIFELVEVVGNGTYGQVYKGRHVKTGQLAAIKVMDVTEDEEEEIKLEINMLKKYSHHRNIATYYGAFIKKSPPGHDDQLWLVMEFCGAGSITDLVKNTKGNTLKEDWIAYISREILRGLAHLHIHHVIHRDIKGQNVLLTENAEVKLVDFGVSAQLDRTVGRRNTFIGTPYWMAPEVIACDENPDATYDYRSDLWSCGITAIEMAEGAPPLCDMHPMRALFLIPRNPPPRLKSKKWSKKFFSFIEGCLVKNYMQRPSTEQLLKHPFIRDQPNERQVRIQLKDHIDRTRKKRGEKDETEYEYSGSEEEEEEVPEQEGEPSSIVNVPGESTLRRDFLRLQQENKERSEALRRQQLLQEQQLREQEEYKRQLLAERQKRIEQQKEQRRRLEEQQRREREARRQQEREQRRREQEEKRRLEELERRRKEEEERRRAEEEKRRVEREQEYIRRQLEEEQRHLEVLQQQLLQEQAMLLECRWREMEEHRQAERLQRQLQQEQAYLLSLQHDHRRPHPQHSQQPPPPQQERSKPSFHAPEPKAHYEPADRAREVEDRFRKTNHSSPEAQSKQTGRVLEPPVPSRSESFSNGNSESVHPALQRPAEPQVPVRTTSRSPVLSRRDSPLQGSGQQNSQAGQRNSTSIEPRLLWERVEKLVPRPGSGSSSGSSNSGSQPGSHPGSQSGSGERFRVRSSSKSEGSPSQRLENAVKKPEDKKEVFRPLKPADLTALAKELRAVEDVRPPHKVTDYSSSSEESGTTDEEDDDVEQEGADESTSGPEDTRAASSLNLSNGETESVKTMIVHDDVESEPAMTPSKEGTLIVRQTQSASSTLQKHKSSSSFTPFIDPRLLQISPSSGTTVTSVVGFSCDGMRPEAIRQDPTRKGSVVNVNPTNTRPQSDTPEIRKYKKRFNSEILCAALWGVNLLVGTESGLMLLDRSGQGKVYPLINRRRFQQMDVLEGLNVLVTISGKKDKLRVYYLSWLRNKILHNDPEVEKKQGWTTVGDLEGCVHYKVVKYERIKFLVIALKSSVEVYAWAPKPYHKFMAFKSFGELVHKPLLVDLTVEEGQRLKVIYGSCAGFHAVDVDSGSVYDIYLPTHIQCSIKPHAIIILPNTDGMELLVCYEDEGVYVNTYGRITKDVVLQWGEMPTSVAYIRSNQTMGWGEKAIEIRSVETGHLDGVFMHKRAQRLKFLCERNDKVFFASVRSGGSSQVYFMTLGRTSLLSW

As a reminder, the AC50 is the concentration at which the activity in the assay is half-maximal. Consider `O=C(NC1=C(NC2CCS(=O)(=O)C2)C(=O)c2ccccc2C1=O)c1ccccc1` (centres undefined), for which the half-maximal activity concentration (AC50) in experiment [1] is 36.5 µM (active).
In general, IC50 refers to the midpoint of a concentration-inhibition curve. As to `CCCC(=O)NC(c1ccc(N(C)C)cc1)c1ccc2cccnc2c1O` (centres undefined), the IC50 in experiment [2] was > 119 µM (inactive).
By Ki is commonly meant a dissociation constant, usually derived from enzyme kinetics or from competition with a known ligand. As to `O=C1NC(=O)C(c2c[nH]c3ccccc23)=C1c1nc(N2CCNCC2)nc2ccccc12`, the inhibition constant Ki in experiment [3] was 0.2 µM (active); in experiment [4] it was > 2 µM (inactive).
